The numbers were not newly measured in US20100136119A1, “CONTROLLED-RELEASE PREPARATION CONTAINING CILOSTAZOL AND PROCESS FOR THE PREPARATION THEREOF” (AMOREPACIFIC CORPORATION, priority 2007, published 2010), which cites them from elsewhere.

As for `O=C1CCc2cc(OCCCCc3nnnn3C3CCCCC3)ccc2N1` [Cilostazol], the solubility in water is at most 1 µg/mL.
